Laboratory results: US10087178B2, “Substituted spiropyrido[1,2-a]pyrazine derivative and medicinal use thereof as HIV integrase inhibitor” (priority 2012, dated 2018)
Counter-ions that a name gives are not always drawn.

The compounds below were run on HIV-1 NL4-3 strain (assay: Evaluation of antiviral activity: acute infection system of MT-4 cell with HIV-1 NL4-3 strain). Settings: Human immunodeficiency virus 1, NL43, MT4, 120 h, MT-4 cells infected with HIV-1 NL4-3 strain (MOI 0.05), cultured 5 days, Cell Titer-Glo; read-out: antiviral activity (EC50).
Type: cell-based
`CCN1C[C@@]2(C[C@@H]2COC)n2cc(C(=O)NCc3cccc(Cl)c3F)c(=O)c(O)c2C1=O` [Example T19, (1S,2S)-N-(3-chloro-2-fluorobenzyl)-2′-ethyl-9′-hydroxy-2-(methoxymethyl)-1′,8′-dioxo-1′,2′,3′,8′-tetrahydrospiro[cyclopropane-1,4′-pyrido[1,2-a]pyrazine]-7′-carboxamide] gave an EC50 of 3.8 nM.
`COC[C@H]1C[C@]2(CN(C)C(=O)c3c(OC(=O)CN(C)C)c(=O)c(C(=O)NCc4cccc(Cl)c4F)cn32)C1` [Example S73, 7′-(3-chloro-2-fluorobenzylcarbamoyl)-cis-3-(methoxymethyl)-2′-methyl-1′,8′-dioxo-1′,2′,3′,8′-tetrahydrospiro[cyclobutane-1,4′-pyrido[1,2-a]pyrazin]-9′-yl 2-(dimethylamino)acetate dihydrochloride] showed an EC50 of 1.1 nM.
With `CCCCCCCCCCCCCCCC(=O)Oc1c2n(cc(C(=O)NCc3cccc(Cl)c3F)c1=O)[C@]1(CN(C)C2=O)C[C@H](COC)C1` [Example S69, 7′-(3-chloro-2-fluorobenzylcarbamoyl)-cis-3-(methoxymethyl)-2′-methyl-1′,8′-dioxo-1′,2′,3′,8′-tetrahydrospiro[cyclobutane-1,4′-pyrido[1,2-a]pyrazin]-9′-yl palmitate] the EC50 was 1 nM.
`CCOC[C@H]1C[C@]2(CN(C)C(=O)c3c(O)c(=O)c(C(=O)NCc4cccc(Cl)c4F)cn32)C1` [Example S39, N-(3-chloro-2-fluorobenzyl)- cis-3-(ethoxymethyl)-9′-hydroxy-2′-methyl-1′,8′-dioxo-1′,2′,3′,8′-tetrahydrospiro[cyclobutane-1,4′-pyrido[1,2-a]pyrazine]-7′-carboxamide hydrochloride] was tested, and the EC50 was 3.5 nM.
For `CCN1C(=O)c2c(O)c(=O)c(C(=O)NCc3cccc(Cl)c3F)cn2C[C@]12C[C@H](COC)C2` [Example S61, N-(3-chloro-2-fluorobenzyl)-2′-ethyl-9′-hydroxy-cis-3-(methoxymethyl)-1′,8′-dioxo-1′,2′,4′,8′-tetrahydrospiro[cyclobutane-1,3′-pyrido[1,2-a]pyrazine]-7′-carboxamide hydrochloride], the EC50 was 5.1 nM.
Work on `CC(C)N1C(=O)c2c(O)c(=O)c(C(=O)NCc3cccc(Cl)c3F)cn2C[C@@]12C[C@@H]2CO` [Example T47, (1S,2S)-N-(3-chloro-2-fluorobenzyl)-9′-hydroxy-2-(hydroxymethyl)-2′-isopropyl-1′,8′-dioxo-1′,2′,4′,8′-tetrahydrospiro[cyclopropane-1,3′-pyrido[1,2-a]pyrazine]-7′-carboxamide] yielded an EC50 of 4 nM.
For `CCN1C(=O)c2c(O)c(=O)c(C(=O)NCc3cccc(Cl)c3F)cn2C[C@]12C[C@H](CO)C2` [Example S60, N-(3-chloro-2-fluorobenzyl)-2′-ethyl-9′-hydroxy-cis-3-(hydroxymethyl)-1′,8′-dioxo-1′,2′,4′,8′-tetrahydrospiro[cyclobutane-1,3′-pyrido[1,2-a]pyrazine]-7′-carboxamide hydrochloride], the EC50 was 13 nM.
`CO[C@H]1C[C@@]2(Cn3cc(C(=O)NCc4ccc(F)cc4F)c(=O)c(O)c3C(=O)N2C(C)C)C1` [Example S52, N-(2,4-difluorobenzyl)-9′-hydroxy-2′-isopropyl-trans-3-methoxy-1′,8′-dioxo-1′,2′,4′,8′-tetrahydrospiro[cyclobutane-1,3′-pyrido[1,2-a]pyrazine]-7′-carboxamide hydrochloride] showed an EC50 of 3.5 nM.
In the case of `CCN1C[C@]2(C[C@H](COC)C2)n2cc(C(=O)NCc3cccc(Cl)c3F)c(=O)c(O)c2C1=O` [Example S47, N-(3-chloro-2-fluorobenzyl)-2′-ethyl-9′-hydroxy-cis-3-(methoxymethyl)-1′,8′-dioxo-1′,2′,3′,8′-tetrahydrospiro[cyclobutane-1,4′-pyrido[1,2-a]pyrazine]-7′-carboxamide hydrochloride], the EC50 is reported as 3.5 nM.
`COc1ccc(CNC(=O)c2cn3c(c(O)c2=O)C(=O)N(C)C[C@]32C[C@H](CO)C2)c(F)c1Cl` [Example S50, N-(3-chloro-2-fluoro-4-methoxybenzyl)-9′-hydroxy- cis-3-(hydroxymethyl)-2′-methyl-1′,8′-dioxo-1′,2′,3′,8′-tetrahydrospiro[cyclobutane-1,4′-pyrido[1,2-a]pyrazine]-7′-carboxamide] gave an EC50 of 37 nM.
With `COC[C@H]1C[C@]2(CN(C)C(=O)c3c([O][Ca][O]c4c5n(cc(C(=O)NCc6cccc(Cl)c6F)c4=O)[C@]4(CN(C)C5=O)C[C@H](COC)C4)c(=O)c(C(=O)NCc4cccc(Cl)c4F)cn32)C1` [Example 30, Monocalcium bis[7′-(3-chloro-2-fluorobenzylcarbamoyl)-cis-3-(methoxymethyl)-2′-methyl-1′,8′-dioxo-1′,2′,3′,8′-tetrahydrospiro[cyclobutane-1,4′-pyrido[1,2-a]pyrazin]-9′-olate]] the EC50 was 1.1 nM.
With `COC[C@H]1C[C@@]2(CN(C)C(=O)c3c(O)c(=O)c(C(=O)NCc4cccc(Cl)c4F)cn32)C1` [Example 27, N-(3-chloro-2-fluorobenzyl)-9′-hydroxy-trans-3-(methoxymethyl)-2′-methyl-1′,8′-dioxo-1′,2′,3′,8′-tetrahydrospiro[cyclobutane-1,4′-pyrido[1,2-a]pyrazine]-7′-carboxamide] the EC50 was 1.5 nM.
For `COC[C@H]1C[C@]2(CN(C)C(=O)c3c(OC(=O)c4ccccc4)c(=O)c(C(=O)NCc4cccc(Cl)c4F)cn32)C1` [Example S70, 7′-(3-chloro-2-fluorobenzylcarbamoyl)-cis-3-(methoxymethyl)-2′-methyl-1′,8′-dioxo-1′,2′,3′,8′-tetrahydrospiro[cyclobutane-1,4′-pyrido[1,2-a]pyrazin]-9′-yl benzoate], the EC50 was 1.4 nM.

Same assay, conditions: Human immunodeficiency virus 1, NL43, MT4, 120 h, antiviral activity; MT-4 cells infected with HIV-1 NL4-3 (MOI 0.05), 5 days culture, Cell Titer-Glo luminescence
`CC(=O)N(C)C1CC2(C1)CN(C(C)C)C(=O)c1c(O)c(=O)c(C(=O)NCc3ccc(F)cc3F)cn12` (stereo not shown) [Example 20, N-(2,4-difluorobenzyl)-9′-hydroxy-2′-isopropyl-3-(N-methylacetamido)-1′,8′-dioxo-1′,2′,3′,8′-tetrahydrospiro[cyclobutane-1,4′-pyrido[1,2-a]pyrazine]-7′-carboxamide hydrochloride] was tested, and the EC50 was 20 nM.

Same assay, conditions: Human immunodeficiency virus 1, NL43, MT4, 120 h, antiviral activity; MT-4 cells infected with HIV-1 NL4-3 (MOI 0.05), 5 days culture, Cell Titer-Glo luminescence; read-out: EC50
`CC(C)N1C[C@]2(C[C@@H](OCc3ccccc3)C2)n2cc(C(=O)NCc3ccc(F)cc3F)c(=O)c(O)c2C1=O` [Example S1, trans-3-(benzyloxy)-N-(2,4-difluorobenzyl)-9′-hydroxy-2′-isopropyl-1′,8-dioxo-1′,2′,3′,8′-tetrahydrospiro[cyclobutane-1,4′-pyrido[1,2-a]pyrazine]-7′-carboxamide hydrochloride] was tested, and the EC50 was 7.7 nM.
In the case of `CC(C)N1C[C@]2(C[C@H](OCc3ccccc3)C2)n2cc(C(=O)NCc3ccc(F)cc3F)c(=O)c(O)c2C1=O` [Example S2, cis-3-(benzyloxy)-N-(2,4-difluorobenzyl)-9′-hydroxy-2′-isopropyl-1′,8′-dioxo-1′,2′,3′,8′-tetrahydrospiro[cyclobutane-1,4′-pyrido[1,2-a]pyrazine]-7′-carboxamide hydrochloride], the EC50 is reported as 10 nM.
`CCN1C[C@]2(C[C@@H](OCc3ccccc3)C2)n2cc(C(=O)NCc3ccc(F)cc3F)c(=O)c(O)c2C1=O` [Example S15, trans-3-(benzyloxy)-N-(2,4-difluorobenzyl)-2′-ethyl-9′-hydroxy-1′,8′-dioxo-1′,2′,3′,8′-tetrahydrospiro[cyclobutane-1,4′-pyrido[1,2-a]pyrazine]-7′-carboxamide hydrochloride] was tested, and the EC50 was 6.9 nM.

Same assay, conditions: Human immunodeficiency virus 1, NL43, MT4, 120 h, read-out: antiviral activity (EC50), MT-4 cells infected with HIV-1 NL4-3 strain (MOI 0.05), cultured 5 days, Cell Titer-Glo
Compound `CCOc1ccc(CNC(=O)c2cn3c(c(O)c2=O)C(=O)N(C)C[C@]32C[C@H]2COC)c(F)c1Cl` [Example T38, (1R,2R)-N-(3-chloro-4-ethoxy-2-fluorobenzyl)-9′-hydroxy-2-(methoxymethyl)-2′-methyl-1′,8′-dioxo-1′,2′,3′,8′-tetrahydrospiro[cyclopropane-1,4′-pyrido[1,2-a]pyrazine]-7′-carboxamide hydrochloride] has an EC50 of 77 nM.
Compound `CCN1C(=O)c2c(O)c(=O)c(C(=O)NCc3cccc(Cl)c3F)cn2C[C@@]12C[C@@H]2CO` [Example T44, (1S,2S)-N-(3-chloro-2-fluorobenzyl)-2′-ethyl-9′-hydroxy-2-(hydroxymethyl)-1′,8′-dioxo-1′,2′,4′,8′-tetrahydrospiro[cyclopropane-1,3′-pyrido[1,2-a]pyrazine]-7′-carboxamide hydrochloride] has an EC50 of 5.1 nM.
`CN1C[C@@]2(C[C@@H]2CO)n2cc(C(=O)NCc3cccc(Cl)c3F)c(=O)c(O)c2C1=O` [Example T15, (1S,2S)-N-(3-chloro-2-fluorobenzyl)-9′-hydroxy-2-(hydroxymethyl)-2′-methyl-1′,8′-dioxo-1′,2′,3′,8′-tetrahydrospiro[cyclopropane-1,4′-pyrido[1,2-a]pyrazine]-7′-carboxamide hydrochloride] showed an EC50 of 20 nM.
With `CCN1C(=O)c2c(O)c(=O)c(C(=O)NCc3ccc(OC)c(Cl)c3F)cn2C[C@@]12C[C@@H]2CO` [Example T48, (1S,2S)-N-(3-chloro-2-fluoro-4-methoxybenzyl)-2′-ethyl-9′-hydroxy-2-(hydroxymethyl)-1′,8′-dioxo-1′,2′,4′,8′-tetrahydrospiro[cyclopropane-1,3′-pyrido[1,2-a]pyrazine]-7′-carboxamide hydrochloride] the EC50 was 18 nM.

Same assay, conditions: MT-4 cells infected with HIV-1 NL4-3 strain (MOI 0.05), cultured 5 days, Cell Titer-Glo; read-out: antiviral activity (EC50)
With `COC[C@H]1C[C@]2(CN(C)C(=O)c3c(O)c(=O)c(C(=O)NCc4cccc(Cl)c4F)cn32)C1` [Example 26, N-(3-chloro-2-fluorobenzyl)-9′-hydroxy-cis-3-(methoxymethyl)-2′-methyl-1′,8′-dioxo-1′,2′,3′,8′-tetrahydrospiro[cyclobutane-1,4′-pyrido[1,2-a]pyrazine]-7′-carboxamide] the EC50 was 1.9 nM.
